In ChEMBL document CHEMBL1144017, “Novel AMPA and kainate receptor antagonists containing the pyrazolo[1,5-c]quinazoline ring system: Synthesis and structure-activity relationships” (Bioorg Med Chem, 2008):
pIC50, pKi: −log10 of the molar value.

Tests used:
Rattus norvegicus [1] = species on record: Rattus norvegicus; test: Displacement of [3H]AMPA from AMPA receptor in rat cortical membrane at 100 uM; assay type: cell membranes
Glutamate NMDA receptor = test: Displacement of [3H]glycine from NMDA receptor in rat cortical membrane; assay type: cell membranes
Rattus norvegicus [2] = species on record: Rattus norvegicus; test: Displacement of [3H]kainate from KA receptor in rat cortical membrane at 100 uM; assay type: cell membranes
Rattus norvegicus [3] = species on record: Rattus norvegicus; test: Ratio of Ki for rat NMDA receptor to Ki for rat AMPA receptor
[4] = molecular target: Glutamate NMDA receptor (Rattus norvegicus) (UniProt P35439+Q00959+Q00960+Q00961+Q62645+Q8VHN2+Q9R1M7); test: Displacement of [3H]glycine from NMDA receptor in rat cortical membrane at 100 uM; assay type: cell membranes
[5] = Displacement of [3H]AMPA from AMPA receptor in rat cortical membrane; assay type: cell membranes
[6] = Displacement of [3H]kainate from KA receptor in rat cortical membrane; assay type: cell membranes
[7] = molecular target: Glutamate NMDA receptor (Mus musculus); test: Antagonist activity at NMDA receptor assessed as inhibition of NMDA-induced depolarization in mouse cortical wedge preparation by electrophysiology assay
[8] = molecular target: AMPA receptor (Mus musculus); test: Antagonist activity at AMPA receptor assessed as inhibition of AMPA-induced depolarization in mouse cortical wedge preparation by electrophysiology assay

Row | SMILES | Activity (Rattus norvegicus [1]) | pKi (Glutamate NMDA receptor) | Activity (Rattus norvegicus [2]) | Ratio Ki (Rattus norvegicus [3]) | Activity [4] | pKi [5] | pIC50 [6] | pIC50 [7] | pIC50 [8]
1 | CCOC(=O)c1nn2c(=O)[nH]c3cc(Cl)c(NC(=O)NCCc4ccccc4)cc3c2c1C(=O)OCC | 44% | 4.31 | 9% | 0.49 |  |  |  |  | 
2 | CCOC(=O)c1nn2c(=O)[nH]c3cc(Cl)c(NC(=O)Nc4ccccc4)cc3c2c1C(=O)OCC | 20% |  | 0% |  | 11% |  |  |  | 
3 | CCOC(=O)c1ccc(NC(=O)Nc2cc3c(cc2Cl)[nH]c(=O)n2nc(C(=O)OCC)c(C(=O)OCC)c32)cc1 | 5% |  | 15% |  | 5% |  |  |  | 
4 | O=C(NCCc1ccccc1)Nc1cc2c(cc1Cl)[nH]c(=O)n1nc(C(=O)O)c(C(=O)O)c21 |  | 4.51 |  |  |  | 6.32 | 4.77 |  | 
5 | CCNC(=O)Nc1cc2c(cc1Cl)[nH]c(=O)n1nc(C(=O)O)c(C(=O)O)c21 |  | 4.39 |  | 73.3 |  | 6.25 | 5.01 |  | 
6 | CCNC(=O)Nc1cc2c(cc1Cl)[nH]c(=O)n1nc(C(=O)OCC)c(C(=O)OCC)c21 |  |  | 13% | > 3.7 | 44% | 4.57 |  |  | 
7 | CCOC(=O)c1nn2c(=O)[nH]c3cc(Cl)c(NC(=O)c4ccccc4C(=O)O)cc3c2c1C(=O)OCC |  | 4.44 |  | 12.8 |  | 5.55 | 6.96 |  | 
8 | O=C(O)c1nn2c(=O)[nH]c3cc(Cl)c([N+](=O)[O-])cc3c2c1[N+](=O)[O-] |  | 4.69 | 29% | 1.7 |  | 4.92 |  |  | 
9 | CCOC(=O)c1nn2c(=O)[nH]c3cc(Cl)c([N+](=O)[O-])cc3c2c1[N+](=O)[O-] | 45% | 4.44 | 16% | 0.4 |  |  |  |  | 
10 | CCOC(=O)c1nn2c(=O)[nH]c3cc(Cl)c([N+](=O)[O-])cc3c2c1C(=O)OCC | 40% |  | 0% |  | 30% |  |  |  | 
11 | O=C(Nc1cc2c(cc1Cl)[nH]c(=O)n1nc(C(=O)O)c(C(=O)O)c21)NC(Cc1ccccc1)C(=O)O (racemic) |  | 4.21 |  | 129 |  | 6.33 | 4.40 |  | 
12 | CCOC(=O)c1nn2c(=O)[nH]c3cc(Cl)c(NC(=O)NCc4ccccc4)cc3c2c1C(=O)OCC | 44% |  | 0% |  | 19% |  |  |  | 
13 | CCOC(=O)c1nn2c(=O)[nH]c3cc(Cl)c(NC(=O)NC(Cc4ccccc4)C(=O)OC)cc3c2c1C(=O)OCC (racemic) | 46% |  | 16% |  | 16% |  |  |  | 
14 | CCOC(=O)c1c(C(=O)O)nn2c(=O)[nH]c3cc(Cl)c([N+](=O)[O-])cc3c12 |  | 5.33 |  | 5 |  | 6.03 | 4.22 |  | 
15 | O=C(O)c1ccccc1C(=O)Nc1cc2c(cc1Cl)[nH]c(=O)n1nc(C(=O)O)c(C(=O)O)c21 |  | 4.57 |  | 20.7 |  | 5.89 | 6.28 |  | 
16 | O=C(O)CCNC(=O)Nc1cc2c(cc1Cl)[nH]c(=O)n1nc(C(=O)O)c(C(=O)O)c21 |  | 4.17 |  | 425 |  | 6.80 | 5.34 |  | 
17 | CCOC(=O)c1nn2c(=O)[nH]c3cc(Cl)c(-n4cnnc4)cc3c2c1C(=O)OCC |  |  |  | > 80 | 18% | 5.92 | 4.09 | < 4.70 | 5.24

Row | SMILES | Activity (Rattus norvegicus [1]) | pKi (Glutamate NMDA receptor) | Activity (Rattus norvegicus [2]) | Ratio Ki (Rattus norvegicus [3]) | Activity [4] | pKi [5] | pIC50 [6] | pIC50 [7] | pIC50 [8]
18 | O=C(O)c1cc2c3cc(-n4cnnc4)c(Cl)cc3[nH]c(=O)n2n1 |  |  |  |  |  | 6.85 |  |  | 
19 | O=C(Nc1ccc(C(=O)O)cc1)Nc1cc2c(cc1Cl)[nH]c(=O)n1nc(C(=O)O)c(C(=O)O)c21 |  | 4.31 |  | 44 |  | 5.96 | 4.89 |  | 
20 | CCOC(=O)c1nn2c(=O)[nH]c3cc(Cl)c([N+](=O)[O-])cc3c2c1Cl |  |  | 25% | > 1.5 | 45% | 4.20 |  |  | 
21 | CCOC(=O)c1nn2c(=O)[nH]c3cc(Cl)c(-n4cccc4)cc3c2c1C(=O)OCC |  |  | 12% | > 2 | 13% | 4.32 |  |  | 
22 | CCOC(=O)CCCNC(=O)Nc1cc2c(cc1Cl)[nH]c(=O)n1nc(C(=O)OCC)c(C(=O)OCC)c21 |  | 4.00 | 24% | 28 |  | 5.46 |  |  | 
23 | O=C(O)c1nn2c(=O)[nH]c3cc(Cl)c([N+](=O)[O-])cc3c2c1C(=O)O |  | 5.90 |  | 2 |  | 6.23 | 4.93 |  | 
24 | O=C(O)c1nn2c(=O)[nH]c3cc(Cl)c(-n4cccc4)cc3c2c1C(=O)O |  | 4.70 |  | 154 |  | 6.89 | 5.35 |  | 
25 | O=C(NCc1ccccc1)Nc1cc2c(cc1Cl)[nH]c(=O)n1nc(C(=O)O)c(C(=O)O)c21 |  | 4.79 |  | 44 |  | 6.43 | 4.96 |  | 
26 | O=C(Nc1cccc(C(=O)O)c1)Nc1cc2c(cc1Cl)[nH]c(=O)n1nc(C(=O)O)c(C(=O)O)c21 |  | 4.46 |  | 83 |  | 6.38 | 5.52 |  | 
27 | CCOC(=O)c1nn2c(=O)[nH]c3cc(Cl)c(-n4ccc(C=O)c4)cc3c2c1C(=O)OCC |  |  | 17% | > 6 | 20% | 4.80 |  |  | 
28 | CCOC(=O)c1cccc(NC(=O)Nc2cc3c(cc2Cl)[nH]c(=O)n2nc(C(=O)OCC)c(C(=O)OCC)c32)c1 | 18% |  | 0% |  | 0% |  |  |  | 
29 | O=C(Nc1ccccc1)Nc1cc2c(cc1Cl)[nH]c(=O)n1nc(C(=O)O)c(C(=O)O)c21 |  | 4.93 |  | 83.5 |  | 6.85 | 4.96 |  | 
30 | O=C(O)CNC(=O)Nc1cc2c(cc1Cl)[nH]c(=O)n1nc(C(=O)O)c(C(=O)O)c21 |  | 4.27 |  | 112 |  | 6.32 | 5.36 |  | 
31 | O=C(O)c1nn2c(=O)[nH]c3cc(Cl)c(-n4cnnc4)cc3c2c1C(=O)O |  |  |  | > 1000 | 43% | 7.00 | 5.62 | < 5.00 | 5.60
32 | O=C(O)c1nn2c(=O)[nH]c3cc(Cl)c([N+](=O)[O-])cc3c2c1Cl |  | 5.60 |  | 1.9 |  | 5.89 | 4.03 |  | 
33 | CCOC(=O)CNC(=O)Nc1cc2c(cc1Cl)[nH]c(=O)n1nc(C(=O)OCC)c(C(=O)OCC)c21 |  |  | 19% | > 11 | 43% | 5.05 |  |  | 
34 | CCOC(=O)CCNC(=O)Nc1cc2c(cc1Cl)[nH]c(=O)n1nc(C(=O)OCC)c(C(=O)OCC)c21 |  |  | 32% | > 26 | 32% | 5.42 |  |  | 
